PubChem BioAssay AID449764 (Southern Research Specialized Biocontainment Screening …, 2010)

Test system: Mycobacterium tuberculosis H37Rv growth inhibition, no glycerol
Experiment: Mycobacterium tuberculosis H37Rv growth inhibition, no glycerol, confirmatory dose response (AID 449764);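 note: growth read after 7 days of incubation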
Details: for IC90: measured here: IC90 growth inhibition

SMILES	IC50	IC90
CCc1ccc2oc(-c3cc(N=Cc4cccc(OC)c4O)ccc3O)nc2c1	63.8 µM	95 µM
CC(=O)N(Cc1ccc(F)cc1)C1=C(NCCc2ccccc2)C(=O)c2ccccc2C1=O	10.2 µM	16.6 µM
CCCc1cc(C(N)=S)ccn1	17.1 µM	> 100 µM
O=C(CSC1=Nc2ccccc2C2=NC(c3ccccc3)C(=O)N12)NC1CCCCC1 (stereo unspecified)	1.03 µM	1.73 µM
CCOC(=O)CNC(=O)CNC(=O)c1nn(-c2ccc(OC)c(Cl)c2)c(=O)c2ccccc12	38 µM	> 100 µM
O=S1(=O)CCC(N=Cc2ccc(-c3ccc(Cl)cc3)o2)C1 (stereo unspecified)	–	> 100 µM
c1ccc(-c2c3ccccc3nc3[nH]c4ccccc4c23)cc1	96.3 µM	> 100 µM
Cc1ccc(NC(=O)COC(=O)C(NS(=O)(=O)c2ccc(Cl)cc2)C(C)O)cc1C (stereo unspecified)	16.1 µM	36.2 µM
O=C(Nc1cccc(Cl)c1)N1CCN(C/C=C/c2ccccc2)CC1	35 µM	51.3 µM
COc1ccccc1C1=NOC(COC(=O)c2ccc([N+](=O)[O-])cc2)C1 (stereo unspecified)	47.7 µM	> 100 µM
O=C(O)/C=C/C(=O)Nc1ccc(-c2ccccc2)cc1	94.1 µM	> 100 µM
CCOc1ccc(NC(=O)c2sc3nc(C)nc(N4CCOCC4)c3c2C)cc1	30.3 µM	57 µM
CCSc1ncc(/C=N/Nc2ccccc2)n1C	82.6 µM	> 100 µM
CCN(CC)C(=O)Oc1ccc2c(=O)c(-c3ccc(OC)cc3)coc2c1	52.8 µM	> 100 µM
CSc1nn(-c2ccc(C(=O)OCC(=O)NC(=O)NC(C)C)cc2)c(=S)s1	35.7 µM	48.9 µM
CNC(CC(C)C)C(=O)NC1C(=O)NC(CC(N)=O)C(=O)NC2C(=O)NC3C(=O)NC(C(=O)NC(C(=O)O)c4cc(O)cc(O)c4-c4cc3ccc4O)C(O)c3ccc(c(Cl)c3)Oc3cc2cc(c3OC2OC(CO)C(O)C(O)C2OC2C[C@](C)(N)C(O)C(C)O2)Oc2ccc(cc2Cl)C1O (stereo partly specified)	4.52 µM	16.9 µM
CCCc1cc(-c2nc(N)ncc2-c2ccc3c(c2)OCCCO3)c(O)cc1OC	54.3 µM	81 µM
CCCCOc1ccc(C(=O)N/N=C/c2ccc(OCCN3CCCCC3)c(OC)c2)cc1	43.3 µM	47.8 µM
CCN=c1scc(-c2ccco2)n1/N=C/c1ccc(OC)c(O)c1	23.2 µM	35.1 µM
CC(=O)OC1=Cc2c(ccc3ccc(=O)oc23)OC1(C)C	47.9 µM	> 100 µM
C=CCNCC(=O)N1N=C(c2ccc3ccccc3c2)CC1c1ccc(OC)cc1 (stereo unspecified)	18.4 µM	23.3 µM
O=C1CCc2ccc(OCCCCN3CCN(c4cccc(Cl)c4Cl)CC3)cc2N1	33.3 µM	> 100 µM

SMILES	IC50	IC90
CCCCN1C(=O)C2(NNc3ccccc3O2)c2ccccc21 (stereo unspecified)	92.1 µM	> 100 µM
CCN(Cc1ccccc1)c1ccc(/C=N/N=C(N)N)cc1	18.8 µM	28.1 µM
Oc1ccccc1Nc1nc(NCc2ccccc2)c2ccccc2n1	19.1 µM	24.1 µM
CCCCCCCCCCCCCCCC[N+](C)(C)CC	36.1 µM	48.4 µM
O=C(NNc1nc(-c2ccccc2)cs1)c1ccccc1	40.2 µM	> 100 µM
Cc1ccc(-c2noc(C3CCCN(C(=O)c4ccc(C(C)(C)C)cc4)C3)n2)o1 (stereo unspecified)	53.9 µM	82.6 µM
Cc1cccc(NS(=O)(=O)c2ccc(C(=O)N3CCN(c4ccccc4O)CC3)cc2)c1C	85.5 µM	> 100 µM
O=[N+]([O-])c1ccc(N2CCCCC2)s1	13.7 µM	18.5 µM
Cc1ccnc(NC(=O)CCc2c[nH]c3ccccc23)c1	21.5 µM	31.9 µM
COc1ccc(N(CC(=O)Nc2cc(Cl)ccc2C)S(=O)(=O)c2c(C)n[nH]c2C)cc1	40.5 µM	52.7 µM
O=[N+]([O-])c1cc(-c2ncccn2)c([N+](=O)[O-])s1	33.1 µM	38.8 µM
N#Cc1c(SCC(N)=O)nsc1SCc1ccccc1Cl	45.8 µM	> 100 µM
Cc1c(CN2CCC(CO)(Cc3cccc(C(F)(F)F)c3)CC2)c2ccccc2n1C	31.2 µM	39.6 µM
CCOC(=O)Cn1c(-c2ccccc2)ccc(C#N)c1=O	10.4 µM	> 50 µM
COc1ccc(CNC(=O)c2c(N)n(CCCN3CCOCC3)c3nc4ccccc4nc23)cc1	92.4 µM	> 100 µM
COc1cccc(C2C3=C(N=c4s/c(=C\c5cccc(O)c5)c(=O)n42)c2ccccc2CC3)c1OC (stereo unspecified)	22.7 µM	25.6 µM
Cc1cccc(C2=N/C(=C\c3cccs3)C(=O)O2)c1	7.65 µM	> 100 µM
COCC(=O)O[C@]1(CCN(C)CCCc2nc3ccccc3[nH]2)CCc2cc(F)ccc2[C@@H]1C(C)C	45.4 µM	53.2 µM
Cc1nn(Cc2ccccc2Cl)c2sc(C(=O)NCCCn3ccnc3)cc12	37.4 µM	56 µM
c1ccc2sc(Sc3ncnc4sccc34)nc2c1	11.4 µM	12.9 µM
CCOc1cc(/C=C2\COc3ccccc3C2=O)cc(Br)c1OCC(=O)N(C)C	6.73 µM	11.5 µM
Cc1ccc2[nH]c3c(N4CCN(Cc5ccccc5)CC4)ncnc3c2c1	25.1 µM	46 µM

SMILES	IC50	IC90
CCOC(=O)c1cc(/C(C)=N/OC(=O)c2ccc(C(C)(C)C)cc2)on1	22.9 µM	26.8 µM
CC(=O)c1c(N2CCCC2)[nH]c(-c2ccccc2)nc1=S	81.4 µM	> 100 µM
c1ccc(-c2nnc(-c3ccccn3)nn2)nc1	6.07 µM	6.86 µM
COc1ccc(/C=C2\CCC/C(=C\C=N\N(C)C)C2=O)cc1	12.4 µM	17.8 µM
Cc1ccc(N2C(=O)C(F)(F)C2c2ccccc2)cc1 (stereo unspecified)	4.61 µM	7.9 µM
CC(C)c1ccc(N2C(=O)NC(=O)/C(=C\C=C\c3ccco3)C2=O)cc1	44.5 µM	49.7 µM
CCOc1ccc(C(=O)CCN2CCCCCC2)cc1	23.7 µM	26.2 µM
CC1=NN(c2ccc(C)c(C)c2)C(=O)/C1=C\C=C\c1ccc([N+](=O)[O-])o1	10.9 µM	17.7 µM
CNc1ccc2oc(C[C@H]3O[C@@]4(CC[C@H]3C)O[C@H]([C@H](C)C(=O)c3ccc[nH]3)[C@H](C)C[C@H]4C)nc2c1C(=O)O	2.82 µM	3.18 µM
O=C(O)c1ccc(N2C(=O)/C(=C/c3ccc(-c4ccc([N+](=O)[O-])cc4)o3)C=C2c2ccccc2)cc1	49.8 µM	> 100 µM
CCOc1ccc(/C=N/Nc2ccc(Cl)nn2)c(O)c1	5.87 µM	6.71 µM
COC(=O)c1[nH]c2cc(OC)ccc2c1NC(=O)CN1CCN(c2cccc(C)c2)C(C)C1 (stereo unspecified)	38.1 µM	50.9 µM
Clc1ccc(-c2cc3ccccc3nc2N2CCCC2)cc1	71.6 µM	> 100 µM
COc1ccc(C2Oc3ccccc3C3=C2C(c2cccs2)n2ncnc2N3)cc1 (stereo unspecified)	78.9 µM	> 100 µM
CC(C)CS(=O)(=O)C1=NN2C(=N)/C(=C\c3ccc(OC(=O)c4ccco4)cc3)C(=O)N=C2S1	20.9 µM	26.5 µM
O=c1[nH]c(CSc2cccc[n+]2[O-])nc2ccccc12	89.1 µM	99.6 µM
COc1cccc2c1C(=O)c1c(O)c3c(c(O)c1C2=O)C[C@@](O)(C(=O)CO)C[C@@H]3O[C@H]1C[C@H](N)[C@@H](O)[C@H](C)O1	5.87 µM	6.6 µM
O=C(NCCc1ccc(Cl)cc1)c1ccc(CS(=O)Cc2ccc(Cl)cc2)o1 (stereo unspecified)	45.2 µM	52.1 µM
O=Nc1c2nc3ccccc3n(O)c-2c2ccccc12	12.2 µM	13.7 µM
CC(C)(C)CC(C)(C)c1ccc(OCCOCC[N+](C)(C)Cc2ccccc2)cc1	42.8 µM	47.1 µM
COc1ccc(C2=Nn3c(nnc3-c3ccccc3F)SC2)cc1OC1CCCC1	19.5 µM	25.4 µM
COc1ccc(-c2c(C#Cc3ccsc3)c3ccccc3n2C)cc1	33.8 µM	49.6 µM

SMILES	IC50	IC90
c1ccc(CN2CCN(c3nc(NCc4ccco4)c4ccccc4n3)CC2)cc1	17.2 µM	22.6 µM
CC(C)OC(=O)c1ccc(COC(=O)c2cnccn2)cc1	18 µM	> 100 µM
CC(=O)Nc1ccc(S(=O)(=O)Nc2ccc(N3CCCCC3)cc2)cc1	12.4 µM	15.9 µM
Cn1nc(-c2ccccc2F)c2cc(C(=O)Nc3ccc4c(c3)OCCO4)sc21	41.7 µM	> 100 µM
Oc1ccc(Nc2nc(-c3ccc4ccccc4c3)cs2)cc1	82.4 µM	> 100 µM
Cc1ccn2nc(S(=O)(=O)Nc3c(F)cccc3F)nc2n1	9.62 µM	11.5 µM
O=[N+]([O-])c1ccc(C2CC(c3ccccc3)=Nc3ccccc3S2)cc1 (stereo unspecified)	6.28 µM	7.31 µM
Cc1cc(CC(C)C)n(-c2nc3ccccc3c(=O)n2OCC(N)=O)n1	11.2 µM	20.6 µM
Cc1ccccc1Cn1ccc(=NCc2ccccc2)cc1	10.2 µM	14 µM
Cc1ccc(C(=O)/C=C/C(=O)c2ccc(C)cc2)cc1	4.34 µM	5.87 µM
O=C(CSC(=S)N1CCCC1)c1cc(Br)cc(Br)c1O	41.2 µM	45.4 µM
N/C(=N\NC(=O)c1sccc1OCc1ccc(Cl)cc1Cl)c1ccccn1	32.3 µM	39.4 µM
CCOC(=O)CSc1nn(-c2ccccc2)c(=S)s1	6.12 µM	6.9 µM
COc1ccc(NC(=O)CSC2=C(C#N)C(c3ccco3)C(C(=O)Nc3nc4ccccc4s3)=C(C)N2)cc1 (stereo unspecified)	7.09 µM	16.4 µM
CCC(=O)Nc1nc2ccccc2n1Cc1ccc(Cl)cc1	< 0.2 µM	4.27 µM
Cc1ccc(CNC(=O)c2sc3nc4c(c(C(F)(F)F)c3c2N)CCC4)cc1	46.3 µM	50.9 µM
COc1cc2nc(Nc3ccc(C)c(Cl)c3)nc(N)c2cc1OC	58.7 µM	66.8 µM
C[C@]12CC[C@@H]3c4ccc(O)cc4CC[C@H]3[C@@H]1CC[C@@H]2OC(=O)CCC1CCCC1	14.5 µM	35.3 µM
Nc1nc2ccccc2n1CCOc1ccccc1Cl	20.3 µM	23.1 µM
Cc1ccc(C(=O)C2CCN(CC(=O)Nc3nc(C)cs3)CC2)cc1	48.4 µM	53.6 µM
